US20040077639A1, “Methods for the treatment of respiratory diseases and conditions using a selective iNOS inhibitor” (priority 2002, published 2004)

Assays:
[1] = tested on: iNOS activity in human primary airway epithelial cells; test: Nitrite in media of cytokine-treated human primary airway epithelial cells; assay type: cell-based; details: 50 ng/ml IL-1β, TNF-α and IFN-γ (cytomix), 24 h; FIG. 1; read-out: IC50 for inhibition of the increase in nitrite in the media
Experimental: Human primary airway epithelial cell cultures: Human primary airway epithelial cells were cultured as described previously (see Donnelly,L. E. and Barnes, P. J. Am J Respir Cell Mol.Biol 24:295-303 (2000)), and the amount of nitrite, the stable oxidation product of NO, in the cell culture media was measured using a modification of the spectrofluorometric method of Misko et al., Anal. Biochem. […] (1993).
The protein was evenly distributed throughout the cytoplasm in basal cells but clearly located beneath the cilia in the columnar, ciliated cells. Treatment of airway epithelial cells with 50 ng/ml of IL-1β, TNF-α and IFN-γ (cytomix) for 24 h caused an induction of iNOS protein and an increase in the accumulation of nitrite in cell culture media from 2.20±0.2 μM in the absence of cytomix, to 3.5±0.4 μM in the presence of cytomix.
Media was harvested and measured for nitrite content (FIG. 1). Cellular proteins were resolved on 3-8% tris-acetate polyacrylamide gels and immunoblotted for iNOS protein (FIG. 2).
Rather, as expected, it appears to result from inhibition of enzymatic activity.

[2] = tested on: iNOS protein expression in human primary airway epithelial cells; test: Western blotting of iNOS from cultured epithelial cells; assay type: cell-based; details: cytomix-treated cells; FIG. 2
Experimental: Westem blotting of INOS from cultured epithelial cells: Following incubation with the cytokine mixture alone or with various concentrations of L-NIL, epithelial cells were lysed in 50 mM Tris/HCl, pH 7.4, containing 0.25 mM ethylene diaminotetraacetic acid, 0.5 mM phenylmethylsulfonyl fluoride, 5 μg/ml antipain, 5 μg/ml leupeptin and 5 μg/ml benzaminidine. The protein concentration was determined using the BioRad protein assay kit according to the manufacturer's instructions. Cell proteins were solubilized in sodium dodecyl sulfate polyacrylamide gel electrophoresis sample buffer ([…] Tris/HCl, pH 6.8, containing 10% v/v glycerol, 1% w/v SDS, 1% w/v β-mercaptoethanol, and 0.01% w/v bromophenol blue). The proteins (15 μg per lane) were resolved by electrophoresis in 3-8% (w/v) Tris-acetate SDS-polyacrylamide gels and transferred to Hybond-Enhanced Chemi-luminescence (ECL) nitro-cellulose membranes. Equal protein loading was determined by staining the blot with 0.1% (w/v) Ponceau S in 5% (v/v) acetic acid. The nitro-cellulose was then blocked overnight at 4° C. in 0.5M Tris-HCl,pH 7.4, containing 3% (w/v) normal goat serum, 1% (w/v) bovine serum albumin and 0.05% (v/v) Tween-20. […]
Media was harvested and measured for nitrite content (FIG. 1). […]

CC(=N)NCCCC[C@H](N)C(=O)O [L-NIL]
IC50 [1]: ~5.7 µM
effect on iNOS expression as detected by immunoblotting [2]: did not affect
